The compounds below were run against HSD17B13 (Homo sapiens (Human), UniProt Q7Z5P4) (assay: HSD17B13 enzymatic inhibition assay (150 nM or 50 nM HSD17B13)). Conditions: 50 nM HSD17B13; read-out: Inhibition of 50 nM of HSD17B13 IC50.
Format: biochemical

Sequence of HSD17B13 (Q7Z5P4 other isoform, or with tags, fused parts or gaps): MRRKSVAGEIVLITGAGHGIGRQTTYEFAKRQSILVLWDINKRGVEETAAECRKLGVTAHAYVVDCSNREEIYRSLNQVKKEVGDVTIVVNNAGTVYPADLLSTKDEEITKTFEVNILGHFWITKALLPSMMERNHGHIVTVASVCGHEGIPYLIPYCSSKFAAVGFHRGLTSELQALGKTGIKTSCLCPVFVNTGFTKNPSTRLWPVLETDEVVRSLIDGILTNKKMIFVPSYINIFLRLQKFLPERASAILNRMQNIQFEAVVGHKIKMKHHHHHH

First: O=C(NC1CCOc2cccnc21)c1ccc(C(F)(F)F)[nH]c1=O (centres unmarked) [Compound 477, N-(3,4-dihydro-2H-pyrano[3,2-b]pyridin-4-yl)-2-oxo-6-(trifluoromethyl)-1,2-dihydropyridine-3-carboxamide]
Second: O=C(NC1c2ccccc2Oc2ccc(C3CNC3)cc21)c1ccc(C(F)(F)F)[nH]c1=O (centres unmarked) [Compound 481, N-(2-(azetidin-3-yl)-9H-xanthen-9-yl)-2-oxo-6-(trifluoromethyl)-1,2-dihydropyridine-3-carboxamide]
The IC50 of the first is higher: greater than 10 µM for the first, 1.42 µM for the second. The second is the more potent here.

First: O=C(NC(c1ccccc1)c1cccc(CC(F)(F)F)c1)c1ccc(C(F)(F)F)[nH]c1=O (centres unmarked) [Compound 478, 2-oxo-N-(phenyl(3-(2,2,2-trifluoroethyl)phenyl)methyl)-6-(trifluoromethyl)-1,2-dihydropyridine-3-carboxamide]
Second: O=C(NC1c2ccccc2Oc2ccc(CC(F)(F)F)cc21)c1ccc(C(F)(F)F)[nH]c1=O (centres unmarked) [Compound 479, 2-oxo-N-(2-(2,2,2-trifluoroethyl)-9H-xanthen-9-yl)-6-(trifluoromethyl)-1,2-dihydropyridine-3-carboxamide]
The IC50 of the first is 5.4-fold higher: 1.41 µM for the first, 0.26 µM for the second.

First: O=C(NC1c2ccccc2Sc2ccc(CC(F)(F)F)cc21)c1ccc(C(F)(F)F)[nH]c1=O (centres unmarked) [Compound 480, 2-oxo-N-(2-(2,2,2-trifluoroethyl)-9H-thioxanthen-9-yl)-6-(trifluoromethyl)-1,2-dihydropyridine-3-carboxamide]
Second: O=C(NC1c2ccccc2Oc2cc(C3CNC3)ccc21)c1ccc(C(F)(F)F)[nH]c1=O (centres unmarked) [Compound 483, N-(3-(azetidin-3-yl)-9H-xanthen-9-yl)-2-oxo-6-(trifluoromethyl)-1,2-dihydropyridine-3-carboxamide]
The IC50 of the first is 2.8-fold lower: 0.4 µM for the first, 1.11 µM for the second. The first is the more potent here.

First: CN1CC(c2ccc3c(c2)C(NC(=O)c2ccc(C(F)(F)F)[nH]c2=O)c2ccccc2O3)C1 (centres unmarked) [Compound 482, N-(2-(1-methylazetidin-3-yl)-9H-xanthen-9-yl)-2-oxo-6-(trifluoromethyl)-1,2-dihydropyridine-3-carboxamide]
Second: CN1CC(c2ccc3c(c2)Oc2ccccc2C3NC(=O)c2ccc(C(F)(F)F)[nH]c2=O)C1 (centres unmarked) [Compound 484, N-(3-(1-methylazetidin-3-yl)-9H-xanthen-9-yl)-2-oxo-6-(trifluoromethyl)-1,2-dihydropyridine-3-carboxamide]
The IC50 of the first is 2.1-fold lower: 2.39 µM for the first, 4.98 µM for the second. The first is the more potent here.

`Cc1ccc2c(c1)Oc1cc(C)ccc1C2NC(=O)c1ccc(C(C)C)[nH]c1=O` [Compound 485, N-(3,6-dimethyl-9H-xanthen-9-yl)-6-isopropyl-2-oxo-1,2-dihydropyridine-3-carboxamide] and `Cc1ccc2c(c1)Oc1cc(C)ccc1C2NC(=O)c1ccc(C(C)(C)C)[nH]c1=O` [Compound 486, 6-(tert-butyl)-N-(3,6-dimethyl-9H-xanthen-9-yl)-2-oxo-1,2-dihydropyridine-3-carboxamide] cannot be ordered by IC50: greater than 10 µM for the first, greater than 10 µM for the second.

First: Cc1ccc2c(c1)Oc1cc(C)ccc1C2NC(=O)c1ccc(C(C)(C)C)nc1Cl [Compound 487, 6-(tert-butyl)-2-chloro-N-(3,6-dimethyl-9H-xanthen-9-yl)nicotinamide]
Second: O=C(NC1c2ccccc2Oc2cc(C3COC3)ccc21)c1ccc(C(F)(F)F)[nH]c1=O (centres unmarked) [Compound 488, N-(3-(oxetan-3-yl)-9H-xanthen-9-yl)-2-oxo-6-(trifluoromethyl)-1,2-dihydropyridine-3-carboxamide]
The IC50 of the first is higher: greater than 10 µM for the first, 0.11 µM for the second.

Compared with `O=C(NC1c2ccccc2Oc2ccc(C3COC3)cc21)c1ccc(C(F)(F)F)[nH]c1=O` (centres unmarked) [Compound 489, N-(2-(oxetan-3-yl)-9H-xanthen-9-yl)-2-oxo-6-(trifluoromethyl)-1,2-dihydropyridine-3-carboxamide], `Cc1ccc(C(C(=O)Nc2ccc(C(F)(F)F)[nH]c2=O)c2ccc(C)cc2)cc1` [Compound 492, N-(2-oxo-6-(trifluoromethyl)-1,2-dihydropyridin-3-yl)-2,2-di-p-tolylacetamide] is higher in IC50: 0.23 µM for the first, greater than 10 µM for the second.
